Test results reported in ChEMBL document CHEMBL3046429, “Synthesis, molecular modeling study, preliminary antibacterial, and antitumor evaluation of N-substituted naphthalimides and their structural analogues” (2013).
In brackets after ≈: the same amount, converted by molar mass.

Key:
Format in all cases: functional
[1] = test system: UO-31; experiment: Growth inhibition of Homo sapiens (human) UO31 cells at 10 uM after 48 hr by coulter counter analysis; details: UO-31, 48 h, read-out: GI
[2] = test system: SF-295; experiment: Growth inhibition of Homo sapiens (human) SF295 cells at 10 uM after 48 hr by coulter counter analysis; details: SF-295, 48 h, read-out: GI
[3] = test system: LOX IMVI; experiment: Growth inhibition of Homo sapiens (human) LOXIMVI cells at 10 uM after 48 hr by coulter counter analysis; details: read-out: GI
[4] = test system: A498; experiment: Growth inhibition of Homo sapiens (human) A498 cells at 10 uM after 48 hr by coulter counter analysis; details: A498, 48 h, read-out: GI
[5] = test system: TK-10; experiment: Growth inhibition of Homo sapiens (human) TK10 cells at 10 uM after 48 hr by coulter counter analysis; details: TK-10, 48 h, read-out: GI
[6] = test system: KM12; experiment: Growth inhibition of Homo sapiens (human) KM12 cells at 10 uM after 48 hr by coulter counter analysis; details: KM12, 48 h, read-out: GI
[7] = test system: A549; experiment: Growth inhibition of Homo sapiens (human) A549/ATCC cells at 10 uM after 48 hr by coulter counter analysis; details: A549, 48 h, read-out: GI
[8] = test system: SK-MEL-2; experiment: Growth inhibition of Homo sapiens (human) SK-MEL-2 cells at 10 uM after 48 hr by coulter counter analysis; details: SK-MEL-2, 48 h, read-out: GI
[9] = test system: SK-MEL-5; experiment: Growth inhibition of Homo sapiens (human) SK-MEL-5 cells at 10 uM after 48 hr by coulter counter analysis; details: SK-MEL-5, 48 h, read-out: GI
[10] = test system: HL-60(TB); experiment: Growth inhibition of Homo sapiens (human) HL-60(TB) cells at 10 uM after 48 hr by coulter counter analysis; details: HL-60, 48 h, read-out: GI
[11] = test system: EKVX; experiment: Growth inhibition of Homo sapiens (human) EKVX cells at 10 uM after 48 hr by coulter counter analysis; details: read-out: GI
[12] = test system: NCI-H23; experiment: Growth inhibition of Homo sapiens (human) NCI-H23 cells at 10 uM after 48 hr by coulter counter analysis; details: NCI-H23, 48 h, read-out: GI
[13] = test system: M14; experiment: Growth inhibition of Homo sapiens (human) M14 cells at 10 uM after 48 hr by coulter counter analysis; details: M14, 48 h, read-out: GI
[14] = test system: SNB-19; experiment: Growth inhibition of Homo sapiens (human) SNB19 cells at 10 uM after 48 hr by coulter counter analysis; details: SNB-19, 48 h, read-out: GI
[15] = test system: Staphylococcus aureus; experiment: Antibacterial activity against Staphylococcus aureus assessed as growth inhibition after 24 hr by two fold serial dilution method
[16] = test system: MDA-MB-468; experiment: Growth inhibition of Homo sapiens (human) MDA-MB-468 cells at 10 uM after 48 hr by coulter counter analysis; details: MDA-MB-468, 48 h, read-out: GI
[17] = test system: OVCAR-5; experiment: Growth inhibition of Homo sapiens (human) OVCAR5 cells at 10 uM after 48 hr by coulter counter analysis; details: OVCAR-5, 48 h, read-out: GI
[18] = test system: HOP-92; experiment: Growth inhibition of Homo sapiens (human) HOP92 cells at 10 uM after 48 hr by coulter counter analysis; details: HOP-92, 48 h, read-out: GI
[19] = test system: HCT-116; experiment: Growth inhibition of Homo sapiens (human) HCT116 cells at 10 uM after 48 hr by coulter counter analysis; details: HCT-116, 48 h, read-out: GI
[20] = test system: MCF7; experiment: Growth inhibition of Homo sapiens (human) MCF7 cells at 10 uM after 48 hr by coulter counter analysis; details: MCF7, 48 h, read-out: GI
[21] = test system: OVCAR-4; experiment: Growth inhibition of Homo sapiens (human) OVCAR4 cells at 10 uM after 48 hr by coulter counter analysis; details: OVCAR-4, 48 h, read-out: GI

Q: Which inhibition of growth at 10 µM [1] does the source give for `O=C1c2nccnc2C(=O)N1c1c(Cl)cc(Cl)cc1Cl` here?
A: The inhibition of growth at 10 µM was 72.9%.

Q: What about the inhibition of growth at 10 µM [2] of the same compound?
A: The inhibition of growth at 10 µM was -2.42%.

Q: What about the inhibition of growth at 10 µM [3] of the same compound?
A: Its inhibition of growth at 10 µM is -0.26%.

Q: What about the inhibition of growth at 10 µM [4] of the same compound?
A: Its inhibition of growth at 10 µM is 20.9%.

Q: What about the inhibition of growth at 10 µM [5] of the same compound?
A: Its inhibition of growth at 10 µM is -4.45%.

Q: What about the inhibition of growth at 10 µM [6] of the same compound?
A: The inhibition of growth at 10 µM was 10.3%.

Q: What about the inhibition of growth at 10 µM [7] of the same compound?
A: Its inhibition of growth at 10 µM is -11.7%.

Q: What about the inhibition of growth at 10 µM [8] of the same compound?
A: The inhibition of growth at 10 µM was -0.16%.

Q: And the inhibition of growth at 10 µM [9]?
A: Its inhibition of growth at 10 µM is -6.79%.

Q: And the inhibition of growth at 10 µM [10]?
A: The inhibition of growth at 10 µM was 1.42%.

Q: And the inhibition of growth at 10 µM [11]?
A: Its inhibition of growth at 10 µM is 8.2%.

Q: What about the inhibition of growth at 10 µM [12] of the same compound?
A: The inhibition of growth at 10 µM was 0.61%.

Q: And the inhibition of growth at 10 µM [13]?
A: The inhibition of growth at 10 µM was 3.32%.

Q: And the inhibition of growth at 10 µM [14]?
A: Its inhibition of growth at 10 µM is -2.3%.

Q: What about the “-logMIC” value [15] of the same compound?
A: Its value is 4.22.

Q: What about the MIC ([15]; Staphylococcus aureus, 24 h) of the same compound?
A: The MIC was 20 µg/mL (≈ 60.9 µM).

Q: And the inhibition of growth at 10 µM [16]?
A: Its inhibition of growth at 10 µM is 17.8%.

Q: And the inhibition of growth at 10 µM [17]?
A: The inhibition of growth at 10 µM was -1.7%.

Q: And the inhibition of growth at 10 µM [18]?
A: Its inhibition of growth at 10 µM is 57.1%.

Q: And the inhibition of growth at 10 µM [19]?
A: The inhibition of growth at 10 µM was 1.17%.

Q: And the inhibition of growth at 10 µM [20]?
A: The inhibition of growth at 10 µM was 3.64%.

Q: And the inhibition of growth at 10 µM [21]?
A: Its inhibition of growth at 10 µM is -0.64%.
